Experimental data: paper PMC9562916, “Investigation of the Phenolic Component Bioavailability Using the In Vitro Digestion/Caco-2 Cell Model, as well as the Antioxidant Activity in Chinese Red Wine” (Foods, 2022)
Like-named read-outs stand apart in the source and are kept apart here. Marks after values point to notes of the source that are not given here.

Columns and labels:
[1] = system: Caco-2 cell monolayer; assay: Caco-2 transepithelial transport assay of digested red wine; assay type: in vitro ADME, human
Experimental: Caco-2 cells were inoculated following the method of Hubatsch et al. […] Briefly, a 5% v/v of CO2 incubator at 37 °C was used to house the cells. […] Caco-2 cells were sub-cultured when they reached 80-90% of the adherent growth by treating them with a 0.05% v/v of trypsin-EDTA solution. The culture between passages 35 and 40 was used for the following experiment. Transport experiments were performed according to the method of Wu et al. with slight modifications. First, 1.0 × 10^5 Caco-2 cells were inoculated onto 12 mm transparent cell culture plates (Transwell). Media were carefully injected into the apical (0.5 mL) and basolateral (1.5 mL) sides of the Transwell plates. The cell culture medium had to be replaced every other day until the cells formed a monolayer. The integrity and transport ability of the Caco-2 cell monolayer were evaluated by measuring the trans-epithelial electrical resistance (TEER) with a MilliCell voltammeter (Millicell ERS-2, Merck Millipore, Billerica, MA, USA). […] When the cell activity exceeded 0.9, a transport experiment was conducted. The apical side was injected with a digested red wine sample (0.5 mL) and was thoroughly mixed with […] Balanced Salt Solution (HBSS) buffer solution. […] The cells were then cultured in a 37 °C, 5% CO2 incubator. Then, 0.25 mL samples were separately taken from the basolateral side of the monolayer. An equal volume of HBSS buffer was then added every half hour from the beginning of the culture until the end of the culture at 6 h. The collected samples were subsequently filtered and placed in the sample bottle for further HPLC analysis. This experiment was repeated several times to collect enough samples for the next antioxidant test. […] The Agilent 1100 series HPLC instrument was used; it was equipped with a degasser, quaternary pump solvent delivery, a DAD system, and a single quadrupole mass detector coupled with an electrospray ionization LC-MS interface. […] The column temperature was kept at 30 °C, the injection volume was 10 μL, and the flow rate was 0.3 mL/min. The eluents were water and formic acid in a 99:1 (v/v) (A) ratio and 100% acetonitrile (B). The gradient elution procedure was as follows: (1) 3% B solvent at 0 min, (2) 3 to 16% B solvent at 10 min, (3) 16 to 20% B solvent at 30 min, and (4) 20% B solvent maintained until the procedure was completed. The MS configuration was as follows: ESI, negative ion mode, nebulizer pressure of 30 psi, a dry gas flow rate of 10 mL/min, dry gas temperature of 350 °C, and a scan rate of 100~1200 m/z. PCs were determined according to their retention times, UV/VIS spectra, and high-resolution MS spectra, in addition to a comparison with the standards. […] If a standard was unavailable, a structurally related compound was used. Putative annotations were made using spectral features and literature information on the chromatographic properties and mass spectra records from the metabolome database. A standard curve was drawn using methanol solutions with different concentrations as the standards. […] PCs All of the samples were determined in triplicate.

[2] = PC content of red wine before and after in vitro simulated gastrointestinal digestion (HPLC); assay type: in vitro ADME; conditions: for Increase in content after digestion: after digestion vs undigested
Experimental: The digestion procedure was carried out by adapting the method of Brodkorb et al. and Gómez et al.. […] One milliliter (50 units/mL) of porcine amylase was prepared in a 15 mM Na₃PO₄ buffer solution (pH adjusted to 6.8) containing 1.5 mM CaCl2, and it was added to the red wine solution. After 5 min, 4.5 mL of 0.12 M HCl was added to the mixture to adjust the pH to 2.4. One milliliter of porcine pepsin (0.02 mg/L) was dissolved in a 20 mM HCl solution. The mixture was then maintained at 37 °C for 120 min. The digestion mixture was then centrifuged at 8000× g for 15 min to obtain samples from the gastric digestion phase. […] The mixture was incubated at pH 6.5 at 37 °C for 3 h before being centrifuged. The extracts of the intestinal phase were the supernatants. The same operation was done three times, and each sample was stored in a refrigerator (−20 °C) immediately for further analysis.
The Pati method was adopted, with slight modifications, to measure the content of the PCs. The Agilent 1100 series HPLC instrument was used; it was equipped with a degasser, quaternary pump solvent delivery, a DAD system, and a single quadrupole mass detector coupled with an electrospray ionization LC–MS interface. Briefly, th samples were injected into a Zorbax SB C18 reversed-phase column (5 µm,150 × 2.1 mm, Agilent Technologies, Santa Clara, CA, USA) using an autosampler after filtering through 0.45 µm cellulose acetate syringe filters. The column temperature was kept at 30 °C, the injection volume was 10 µL, and the flow rate was 0.3 mL/min. The eluents were water and formic acid in a 99:1 (v/v) (A) ratio and 100% acetonitrile (B). […] The MS configuration was as follows: ESI, negative ion mode, nebulizer pressure of 30 psi, a dry gas flow rate of 10 mL/min, dry gas temperature of 350 °C, and a scan rate of 100~1200 m/z. PCs were determined according to their retention times, UV/VIS spectra, and high-resolution MS spectra, in addition to a comparison with the standards. […] Putative annotations were made using spectral features and literature information on the chromatographic properties and mass spectra records from the metabolome database. A standard curve was drawn using methanol solutions with different concentrations as the standards. The limits of detection and quantitation were calculated according to the signal-to-noise ratio (limit of detection: signal-to-noise ratio ≥ 3; limit of quantitation: signal-to-noise ratio ≥ 10). […] PCs All of the samples were determined in triplicate.

[3] = Cabernet red wine, digested sample, basolateral side of Caco-2 monolayer
[4] = Helanshan red wine, digested sample, basolateral side of Caco-2 monolayer
[5] = Tianzhu red wine, digested sample, basolateral side of Caco-2 monolayer
[6] = apical to basolateral, digested Cabernet red wine
[7] = apical to basolateral, digested Helanshan red wine
[8] = apical to basolateral, digested Tianzhu red wine
[9] = Cabernet red wine, after simulated gastrointestinal digestion
[10] = Helanshan red wine, after simulated gastrointestinal digestion
[11] = Tianzhu red wine, after simulated gastrointestinal digestion

Apparent Permeability Coefficients, Cabernet ([1]; Caco-2)	Apparent Permeability Coefficients, Helanshan ([1]; Caco-2)	Apparent Permeability Coefficients, Tianzhu ([1]; Caco-2)	PC Contents, Cabernet, After Digestion [2]	PC Contents, Helanshan, After Digestion [2]	PC Contents, Tianzhu, After Digestion [2]	PC Contents, Cabernet, Transmembrane ([1]; Caco-2)	PC Contents, Helanshan, Transmembrane ([1]; Caco-2)	PC Contents, Tianzhu, Transmembrane ([1]; Caco-2)	Structure (SMILES)	PC Contents, Cabernet, Transmembrane [1, 3]	PC Contents, Helanshan, Transmembrane [1, 4]	PC Contents, Tianzhu, Transmembrane [1, 5]	Apparent Permeability Coefficients, Cabernet [1, 6]	Apparent Permeability Coefficients, Helanshan [1, 7]	Apparent Permeability Coefficients, Tianzhu [1, 8]	PC Contents, Cabernet, After Digestion [2, 9]	PC Contents, Helanshan, After Digestion [2, 10]	PC Contents, Tianzhu, After Digestion [2, 11]	Increase in content after digestion ([2]; Helanshan red wine) [%]	Increase in content after digestion ([2]; Tianzhu red wine) [%]
7.77 ± 1.14 ^a ×10^−6 cm/s	7.69 ± 1.23 ^a ×10^−6 cm/s	7.83 ± 1.17 ^a ×10^−6 cm/s	25.4 ± 0.86 ^b mg/L	15.42 ± 0.83 ^b mg/L	16.7 ± 0.75 ^b mg/L				O.Oc1cc(O)c2c(c1)O[C@H](c1ccc(O)c(O)c1)[C@@H](O)C2 [Catechin]											
12.13 ± 1.19 ^a ×10^−6 cm/s	12.91 ± 1.32 ^a ×10^−6 cm/s	12.46 ± 1.42 ^a ×10^−6 cm/s	1.96 ± 0.08 ^b mg/L	2.97 ± 0.15 ^b mg/L		0.38 ± 0.02 ^a mg/L	0.61 ± 0.03 ^a mg/L	0.64 ± 0.03 ^a mg/L	O=C(/C=C/c1ccc(O)cc1)O[C@@H](C(=O)O)[C@@H](O)C(=O)O [Coutaric acid]											
									CC(=O)OCC1OC(Oc2cc3c(O)cc(O)cc3[o+]c2-c2cc(O)c(O)c(O)c2)C(O)C(O)C1O (stereo not drawn) [Delphinidin-3-acglc]	0.04 ± 0.002 ^a mg/L	0.02 ± 0.001 ^a mg/L	0.04 ± 0.002 ^a mg/L	8.57 ± 1.26 ^a ×10^−6 cm/s	8.64 ± 1.38 ^a ×10^−6 cm/s	8.78 ± 1.44 ^a ×10^−6 cm/s	0.29 ± 0.014 ^b mg/L	0.14 ± 0.007 ^b mg/L	0.22 ± 0.008 ^b mg/L		
									OC[C@H]1O[C@@H](Oc2cc3c(O)cc(O)cc3[o+]c2-c2cc(O)c(O)c(O)c2)[C@H](O)[C@@H](O)[C@@H]1O [Delphinidin-3-glc, delphinidin-3-glucoside]	0.59 ± 0.02 ^a mg/L	0.53 ± 0.02 ^a mg/L	0.57 ± 0.02 ^a mg/L	12.38 ± 2.37 ^a ×10^−6 cm/s	12.59 ± 2.64 ^a ×10^−6 cm/s	12.45 ± 2.11 ^a ×10^−6 cm/s	2.96 ± 0.09 ^b mg/L	2.63 ± 0.10 ^c mg/L	2.87 ± 0.11 ^c mg/L	28.3	20.6
28.2 ± 4.11 ^a ×10^−6 cm/s	27.9 ± 3.64 ^a ×10^−6 cm/s	27.6 ± 3.89 ^a ×10^−6 cm/s	3.11 ± 0.12 ^b mg/L	1.81 ± 0.10 ^c mg/L	4.11 ± 0.18 ^c mg/L	1.40 ± 0.07 ^a mg/L	0.81 ± 0.04 ^a mg/L	0.82 ± 0.03 ^a mg/L	COc1cc(/C=C/C(=O)OC(C(=O)O)C(O)C(=O)O)ccc1O (stereo not drawn) [Fertaric acid]											
									COc1cc(-c2oc3cc(O)cc(O)c3c(=O)c2O[C@@H]2O[C@H](CO)[C@@H](O)[C@H](O)[C@H]2O)ccc1O [Isorhamnetin-3-glc]	0.74 ± 0.03 ^a mg/L	0.69 ± 0.03 ^a mg/L	1.97 ± 0.07 ^a mg/L	4.29 ± 0.33 ^a ×10^−6 cm/s	4.39 ± 0.31 ^a ×10^−6 cm/s	4.35 ± 0.34 ^a ×10^−6 cm/s	10.82 ± 0.32 ^b mg/L	9.87 ± 0.47 ^b mg/L	9.88 ± 0.35 ^b mg/L		
1.76 ± 0.17 ^a ×10^−6 cm/s	1.83 ± 0.16 ^a ×10^−6 cm/s	1.79 ± 0.13 ^a ×10^−6 cm/s	29.78 ± 1.28 ^b mg/L	18.76 ± 0.81 ^b mg/L	28.63 ± 0.86 ^b mg/L	0.84 ± 0.04 ^a mg/L	0.55 ± 0.03 ^a mg/L	5.70 ± 0.29 ^a mg/L	COc1cc(-c2oc3cc(O)cc(O)c3c(=O)c2O[C@@H]2O[C@H](CO)[C@@H](O)[C@H](O)[C@H]2O)cc(O)c1O [Laricitrin-3-glc]											
									COc1cc(-c2[o+]c3cc(O)cc(O)c3cc2O[C@@H]2O[C@H](COC(C)=O)[C@@H](O)[C@H](O)[C@H]2O)cc(OC)c1O [Malvidin-3-acglc]	8.02 ± 0.38 ^a mg/L	6.06 ± 0.25 ^a mg/L	7.83 ± 0.23 ^a mg/L	12.59 ± 2.16 ^a ×10^−6 cm/s	12.42 ± 2.23 ^a ×10^−6 cm/s	12.37 ± 2.45 ^a ×10^−6 cm/s	39.8 ± 1.51 ^b mg/L	30.5 ± 0.92 ^b mg/L	39.3 ± 1.30 ^b mg/L		
									COc1cc(-c2[o+]c3cc(O)cc(O)c3cc2O[C@@H]2O[C@H](CO)[C@@H](O)[C@H](O)[C@H]2O)cc(OC)c1O [Malvidin-3-glc, malvidin-3-glucoside]	62.38 ± 3.24 ^a mg/L	35.55 ± 1.46 ^a mg/L	20.68 ± 1.05 ^a mg/L		25.19 ± 3.99 ^a ×10^−6 cm/s	25.37 ± 4.11 ^a ×10^−6 cm/s	153.43 ± 5.83 ^b mg/L	88.2 ± 3.97 ^b mg/L	103.8 ± 5.71 ^b mg/L		
